{
  "source": "paper PMC10821600",
  "about": "(The Journal of Biological Chemistry, 2023)",
  "key": {"C57BL/6J mice": {"test_system": "C57BL/6J mice", "conditions": "mouse, in vivo"}, "HEK293 cells": {"test_system": "HEK293 cells", "conditions": "1 h"}, "blowflies (L. caesar)": {"test_system": "blowflies (L. caesar)", "parameters": "species or system Lucilia caesar", "conditions": "in vivo"}, "human erythrocytes": {"test_system": "human erythrocytes", "conditions": "red cells of human, 1 h"}, "human NaV1.7": {"target": "human NaV1.7 (Homo sapiens, UniProt Q15858)", "experiment": "cell-based", "conditions": "SEM"}, "human NaV1.9": {"target": "human NaV1.9 (Homo sapiens, UniProt Q9UI33)", "sequence (Q9UI33 whole entry)": "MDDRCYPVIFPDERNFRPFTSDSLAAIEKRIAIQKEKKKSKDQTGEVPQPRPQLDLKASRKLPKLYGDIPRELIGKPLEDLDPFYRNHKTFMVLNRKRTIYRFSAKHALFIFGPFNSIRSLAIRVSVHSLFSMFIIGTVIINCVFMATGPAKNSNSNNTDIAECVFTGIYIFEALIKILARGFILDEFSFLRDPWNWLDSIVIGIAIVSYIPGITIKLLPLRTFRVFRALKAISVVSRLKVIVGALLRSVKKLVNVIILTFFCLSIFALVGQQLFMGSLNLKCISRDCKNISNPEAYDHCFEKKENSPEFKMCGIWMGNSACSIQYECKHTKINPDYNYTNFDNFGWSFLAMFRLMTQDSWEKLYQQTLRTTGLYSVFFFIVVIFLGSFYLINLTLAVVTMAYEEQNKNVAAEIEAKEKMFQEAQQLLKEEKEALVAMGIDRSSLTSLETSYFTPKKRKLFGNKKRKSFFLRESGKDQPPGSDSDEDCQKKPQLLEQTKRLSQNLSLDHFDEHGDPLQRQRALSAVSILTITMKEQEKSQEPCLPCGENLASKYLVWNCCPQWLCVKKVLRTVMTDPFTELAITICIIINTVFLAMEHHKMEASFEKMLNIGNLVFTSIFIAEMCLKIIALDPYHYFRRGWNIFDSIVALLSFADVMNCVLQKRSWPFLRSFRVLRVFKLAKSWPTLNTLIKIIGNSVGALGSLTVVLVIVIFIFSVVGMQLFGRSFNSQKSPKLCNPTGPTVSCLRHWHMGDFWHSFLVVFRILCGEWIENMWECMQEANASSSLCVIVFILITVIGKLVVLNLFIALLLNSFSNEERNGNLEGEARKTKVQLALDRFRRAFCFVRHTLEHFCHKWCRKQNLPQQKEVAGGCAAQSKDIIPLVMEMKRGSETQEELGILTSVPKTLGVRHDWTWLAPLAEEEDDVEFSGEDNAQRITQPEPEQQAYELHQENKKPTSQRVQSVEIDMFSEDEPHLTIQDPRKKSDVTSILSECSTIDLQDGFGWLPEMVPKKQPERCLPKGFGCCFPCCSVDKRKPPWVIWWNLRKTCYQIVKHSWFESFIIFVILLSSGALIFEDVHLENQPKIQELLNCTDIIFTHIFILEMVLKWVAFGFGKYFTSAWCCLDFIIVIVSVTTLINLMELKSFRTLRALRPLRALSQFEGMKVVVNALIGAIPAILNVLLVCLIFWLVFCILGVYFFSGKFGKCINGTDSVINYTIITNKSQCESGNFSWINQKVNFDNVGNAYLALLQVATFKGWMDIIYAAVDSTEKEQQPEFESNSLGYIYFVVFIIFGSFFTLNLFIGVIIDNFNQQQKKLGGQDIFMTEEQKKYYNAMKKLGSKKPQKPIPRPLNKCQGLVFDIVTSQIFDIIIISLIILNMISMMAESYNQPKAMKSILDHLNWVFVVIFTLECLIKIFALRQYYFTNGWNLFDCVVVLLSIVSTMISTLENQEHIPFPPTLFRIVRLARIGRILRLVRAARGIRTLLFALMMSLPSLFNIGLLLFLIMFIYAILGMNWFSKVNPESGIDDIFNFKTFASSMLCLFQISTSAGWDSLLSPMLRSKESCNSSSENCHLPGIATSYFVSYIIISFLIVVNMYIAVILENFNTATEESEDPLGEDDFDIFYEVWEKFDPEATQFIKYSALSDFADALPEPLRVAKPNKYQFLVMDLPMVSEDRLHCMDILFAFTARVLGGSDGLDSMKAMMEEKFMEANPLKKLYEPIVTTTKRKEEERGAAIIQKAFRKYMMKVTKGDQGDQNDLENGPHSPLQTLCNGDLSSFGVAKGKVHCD", "experiment": "cell-based"}, "mouse NaV1.7": {"target": "mouse NaV1.7 (Mus musculus, UniProt Q62205)", "experiment": "cell-based", "conditions": "SEM"}, "human NaV1.8": {"target": "human NaV1.8 (Homo sapiens, UniProt Q9Y5Y9)", "sequence (Q9Y5Y9 whole entry)": "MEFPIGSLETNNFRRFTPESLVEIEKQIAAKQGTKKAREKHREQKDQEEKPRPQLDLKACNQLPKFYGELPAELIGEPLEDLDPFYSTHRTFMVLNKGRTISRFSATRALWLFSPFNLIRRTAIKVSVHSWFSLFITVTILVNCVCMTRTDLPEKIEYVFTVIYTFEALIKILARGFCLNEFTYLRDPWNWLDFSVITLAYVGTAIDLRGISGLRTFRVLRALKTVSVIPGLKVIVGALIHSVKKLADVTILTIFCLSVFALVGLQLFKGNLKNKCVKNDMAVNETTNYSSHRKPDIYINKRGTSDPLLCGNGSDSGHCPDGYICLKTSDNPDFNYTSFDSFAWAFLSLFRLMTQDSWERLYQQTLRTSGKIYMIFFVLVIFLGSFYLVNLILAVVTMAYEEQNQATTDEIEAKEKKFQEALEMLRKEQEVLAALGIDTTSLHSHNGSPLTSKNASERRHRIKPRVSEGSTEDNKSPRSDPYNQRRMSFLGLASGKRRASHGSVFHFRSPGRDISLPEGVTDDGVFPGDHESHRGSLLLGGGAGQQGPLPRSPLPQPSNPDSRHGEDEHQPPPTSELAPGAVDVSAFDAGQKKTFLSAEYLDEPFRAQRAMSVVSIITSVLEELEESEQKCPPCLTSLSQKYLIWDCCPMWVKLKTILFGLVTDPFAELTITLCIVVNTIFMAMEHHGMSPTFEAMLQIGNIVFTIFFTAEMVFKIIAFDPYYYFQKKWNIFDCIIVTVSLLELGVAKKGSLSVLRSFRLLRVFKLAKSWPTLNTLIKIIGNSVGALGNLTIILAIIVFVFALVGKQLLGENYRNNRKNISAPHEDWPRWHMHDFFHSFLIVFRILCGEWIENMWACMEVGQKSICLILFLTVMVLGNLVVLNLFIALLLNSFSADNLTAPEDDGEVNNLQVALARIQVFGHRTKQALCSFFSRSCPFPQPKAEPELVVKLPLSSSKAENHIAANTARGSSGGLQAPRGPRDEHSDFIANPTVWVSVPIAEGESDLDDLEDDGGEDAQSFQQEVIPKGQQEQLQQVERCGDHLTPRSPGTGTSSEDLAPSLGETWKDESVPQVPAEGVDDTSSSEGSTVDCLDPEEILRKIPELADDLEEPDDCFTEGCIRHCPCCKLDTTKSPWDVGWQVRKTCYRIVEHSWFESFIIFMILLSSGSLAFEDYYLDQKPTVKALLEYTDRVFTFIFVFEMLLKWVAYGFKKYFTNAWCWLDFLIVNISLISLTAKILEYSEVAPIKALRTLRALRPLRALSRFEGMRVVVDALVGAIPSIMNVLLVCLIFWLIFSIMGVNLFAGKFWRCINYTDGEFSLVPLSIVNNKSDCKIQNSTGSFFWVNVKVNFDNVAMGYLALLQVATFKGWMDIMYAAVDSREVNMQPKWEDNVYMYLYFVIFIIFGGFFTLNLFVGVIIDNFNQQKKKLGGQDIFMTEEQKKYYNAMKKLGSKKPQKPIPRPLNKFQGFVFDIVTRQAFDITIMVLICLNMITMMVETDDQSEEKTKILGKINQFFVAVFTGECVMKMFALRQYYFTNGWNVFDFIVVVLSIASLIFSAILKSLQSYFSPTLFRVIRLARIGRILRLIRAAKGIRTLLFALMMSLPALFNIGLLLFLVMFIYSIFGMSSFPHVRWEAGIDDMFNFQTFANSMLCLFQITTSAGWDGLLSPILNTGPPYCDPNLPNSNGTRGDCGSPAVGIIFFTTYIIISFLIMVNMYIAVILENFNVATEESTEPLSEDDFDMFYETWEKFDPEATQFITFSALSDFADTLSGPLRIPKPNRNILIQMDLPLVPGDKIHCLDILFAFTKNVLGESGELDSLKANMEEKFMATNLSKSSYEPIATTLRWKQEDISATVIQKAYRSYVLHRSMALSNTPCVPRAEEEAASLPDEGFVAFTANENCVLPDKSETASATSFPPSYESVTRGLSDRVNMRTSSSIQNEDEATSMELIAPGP", "experiment": "cell-based"}, "human NaV1.6": {"target": "human NaV1.6 (Homo sapiens, UniProt Q9UQD0)", "experiment": "cell-based", "conditions": "SEM"}},
  "note": "Like-named read-outs stand apart in the source and are kept apart here. No end group written: not given here.",
  "data": [
    {"substance": "GIFSALKTLGKILLPVILPTVAEKIKEKV-NH2 [Pm6a]", "values": [
      {"measurement": "spontaneous nocifensive behaviors in mice", "setting": "C57BL/6J mice", "result": "did not cause nociception in mice"},
      {"measurement": "median cytotoxic concentration (CC50)", "setting": "HEK293 cells", "result": "465 ± 359", "unit": "nM"},
      {"measurement": "kind of paralysis in blowflies", "setting": "blowflies (L. caesar)", "result": "rapid paralysis"},
      {"measurement": "reversibility of paralysis in blowflies", "setting": "blowflies (L. caesar)", "result": "irreversible"},
      {"measurement": "median paralytic dose PD50[1 h]", "setting": "blowflies (L. caesar); SEM", "result": "9.9 ± 0.4", "unit": "nmol/g"},
      {"measurement": "median hemolytic concentration (HC50)", "setting": "human erythrocytes", "result": "618 ± 148", "unit": "nM"}
    ]},
    {"substance": "GLPLLALLFSLPVLQHWIEKNWIN-NH2 [Pm1a]", "values": [
      {"measurement": "EC50", "setting": "human NaV1.7", "result": "403 ± 96", "unit": "nM"},
      {"measurement": "EC50", "setting": "human NaV1.9", "result": "> 1000", "unit": "nM"},
      {"measurement": "EC50", "setting": "mouse NaV1.7", "result": "352 ± 58", "unit": "nM"},
      {"measurement": "EC50", "setting": "human NaV1.8", "result": "> 10000", "unit": "nM"},
      {"measurement": "EC50", "setting": "human NaV1.6", "result": "285 ± 47", "unit": "nM"}
    ]},
    {"substance": "ALPALPLLMFLFTLPALQHWIEKNWIN-NH2 [Pm2a]", "values": [
      {"measurement": "EC50", "setting": "human NaV1.7", "result": "154 ± 17", "unit": "nM"},
      {"measurement": "EC50", "setting": "human NaV1.9", "result": "< 1000", "unit": "nM"},
      {"measurement": "EC50", "setting": "mouse NaV1.7", "result": "102 ± 18", "unit": "nM"},
      {"measurement": "EC50", "setting": "human NaV1.8; SEM", "result": "2600 ± 700", "unit": "nM"},
      {"measurement": "EC50", "setting": "human NaV1.6", "result": "176 ± 56", "unit": "nM"}
    ]}
  ]
}
